# Data as given in ChEMBL document CHEMBL1201862, “PubChem BioAssay data set” (2004).
# Calls of active or inactive are those of the source.
# Assays:
# [1] = fluconazole-exposed Candida albicans growth modulators – fluorescence, retest, confirmation (AID 2467); type: functional, cell-based
# [2] = molecular target: ATP-dependent molecular chaperone HSP82 (Candida albicans (strain WO-1) (Yeast), UniProt C4YTQ8); assay: steroid-induced GRE reporter decrease in yeast – S. cerevisiae, luminescence, Hsp90 inhibitor project, dose response (AID 2400); type: functional, cell-based;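 also: beta-galactosidase luminescence from glucocorticoid response element reporter as proxy for Hsp90 function; inhibitor potency where signal loss means Hsp90 inhibition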
# [3] = NIH-3T3 fibroblast cytotoxicity, dose response, cytotoxicity control, cell-based, fluorescence, Alamar Blue, secondary assay (AID 2327); type: functional;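 also: NIH-3T3 mouse fibroblasts cultured with fluconazole at 8 µg/mL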
# [4] = molecular target: T1, Serine/threonine-protein phosphatase (Candida dubliniensis (strain CD36 / CBS 7987 / NCPF 3949 / NRRLY-17841) (Yeast), UniProt B9W6M3); assay: blockers of CaCl2-induced CDRE-lacZ signaling – S. cerevisiae, luminescence, secondary, dose response (AID 2388); type: functional, cell-based;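 also: yeast reporter cells carrying a calcineurin-responsive lacZ construct stimulated with calcium chloride; luminescent beta-galactosidase reporter signal in whole cells rather than isolated phosphatase activity; potency for inhibition where a drop in reporter signal means calcineurin blockade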
# T1 sequence (B9W6M3 whole entry): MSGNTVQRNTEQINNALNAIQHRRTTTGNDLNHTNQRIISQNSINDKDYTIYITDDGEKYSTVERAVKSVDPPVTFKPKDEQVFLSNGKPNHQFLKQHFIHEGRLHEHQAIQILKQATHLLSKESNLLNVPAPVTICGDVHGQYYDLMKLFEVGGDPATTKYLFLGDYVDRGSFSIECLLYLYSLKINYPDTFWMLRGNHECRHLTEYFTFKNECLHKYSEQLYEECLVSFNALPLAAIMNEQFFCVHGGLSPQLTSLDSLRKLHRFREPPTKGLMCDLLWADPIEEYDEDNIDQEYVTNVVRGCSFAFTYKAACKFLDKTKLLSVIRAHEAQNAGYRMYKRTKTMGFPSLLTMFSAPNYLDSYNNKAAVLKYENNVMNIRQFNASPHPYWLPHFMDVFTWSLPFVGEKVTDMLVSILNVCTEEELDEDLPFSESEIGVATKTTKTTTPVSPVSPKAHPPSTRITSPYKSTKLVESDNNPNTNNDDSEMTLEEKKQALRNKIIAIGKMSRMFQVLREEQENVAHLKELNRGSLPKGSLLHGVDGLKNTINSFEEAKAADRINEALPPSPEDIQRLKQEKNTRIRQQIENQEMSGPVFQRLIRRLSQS
# Prothrombin = Prothrombin (Homo sapiens, UniProt P00734); assay: Thrombin 1536 HTS Dose Response Confirmation. [Related pubchem assays: 1046 (Thrombin 1536 HTS; hits were confirmed in this assay)]; type: functional
# Coagulation factor XII = molecular target: T2, Coagulation factor XII (Homo sapiens, UniProt P00748); type: functional;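 also: activated factor XIIa alpha cleaving a fluorogenic AMC peptide substrate; inhibitor potency from loss of enzyme activity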
# T2 sequence (P00748 whole entry): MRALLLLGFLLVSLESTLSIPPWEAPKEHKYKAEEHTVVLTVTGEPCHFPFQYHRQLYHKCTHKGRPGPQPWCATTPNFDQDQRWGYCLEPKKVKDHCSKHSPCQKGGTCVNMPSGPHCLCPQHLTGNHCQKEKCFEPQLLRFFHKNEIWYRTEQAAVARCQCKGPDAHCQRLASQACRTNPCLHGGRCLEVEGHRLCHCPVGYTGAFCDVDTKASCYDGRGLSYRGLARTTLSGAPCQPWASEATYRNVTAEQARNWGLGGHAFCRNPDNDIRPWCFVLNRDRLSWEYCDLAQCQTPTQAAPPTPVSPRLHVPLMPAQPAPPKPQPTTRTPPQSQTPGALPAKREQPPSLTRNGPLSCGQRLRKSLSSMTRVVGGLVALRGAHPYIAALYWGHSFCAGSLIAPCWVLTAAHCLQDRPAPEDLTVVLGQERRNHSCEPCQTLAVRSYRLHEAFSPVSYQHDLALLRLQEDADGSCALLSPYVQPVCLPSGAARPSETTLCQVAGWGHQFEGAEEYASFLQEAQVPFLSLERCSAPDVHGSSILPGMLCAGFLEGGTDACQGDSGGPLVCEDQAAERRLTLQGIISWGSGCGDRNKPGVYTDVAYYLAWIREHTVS
# Cytochrome P450 3A4 = Cytochrome P450 3A4 (Homo sapiens, UniProt P08684);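 also: CYP3A4 tested as one member of a cytochrome P450 panel screen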
# Cytochrome P450 2D6 = Cytochrome P450 2D6 (Homo sapiens, UniProt P10635);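 also: CYP2D6 member of a cytochrome P450 panel assay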
# [5] = test system: Streptococcus sp. 'group A'; assay: Streptococcus pyogenes SK(-)GAS viability under kanamycin – luminescence, BacTiterGlo, confirmation, counter-screen for streptokinase expression inhibitor project, dose response (AID 1900); type: functional, organism-based
# Streptococcus = assay: GAS UMAA2166 growth inhibition – luminescence, BacTiterGlo, counter-screen for streptokinase expression inhibitor project, dose response (AID 1915); type: functional, organism-based;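 also: potency for reduction of bacterial viability or growth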
# Streptokinase A = molecular target: T3, Streptokinase A (Streptococcus pyogenes serotype M1, UniProt P10520); assay: viability-normalized secreted streptokinase activity reduction – plasminogen activation absorbance, OD405, dose response (AID 1914); type: functional, Streptococcus pyogenes M1 GAS;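 also: secreted streptokinase activity via plasminogen activation per viability signal from cell pellet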
# T3 sequence (P10520 whole entry): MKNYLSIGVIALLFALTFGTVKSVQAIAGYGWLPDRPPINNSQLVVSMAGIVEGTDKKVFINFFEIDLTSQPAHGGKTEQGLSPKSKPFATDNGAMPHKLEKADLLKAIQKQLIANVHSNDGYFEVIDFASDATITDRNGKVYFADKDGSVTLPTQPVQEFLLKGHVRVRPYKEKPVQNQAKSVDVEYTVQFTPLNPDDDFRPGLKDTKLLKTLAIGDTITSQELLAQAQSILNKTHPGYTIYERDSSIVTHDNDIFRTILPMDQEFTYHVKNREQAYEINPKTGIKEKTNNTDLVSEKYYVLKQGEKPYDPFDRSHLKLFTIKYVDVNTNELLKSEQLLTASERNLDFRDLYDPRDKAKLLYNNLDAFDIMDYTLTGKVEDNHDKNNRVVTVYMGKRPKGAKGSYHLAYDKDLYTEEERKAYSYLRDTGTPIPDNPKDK
# Nonstructural protein 1 = Nonstructural protein 1 (Influenza A virus, UniProt Q194T2); type: functional, Influenza A virus (A/California/07/2009(H1N1))
# H9c2 = assay: cells; type: functional, cell-based; conditions: Rattus norvegicus, H9c2, Myocardium;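 also: confirmatory concentration-response retest of ultra-high-throughput screening hits for modulation of myocardial damage; cell death induced by hydrogen peroxide oxidative stress; compound pretreatment for 60 min then peroxide exposure for 2 h; potency is for protecting the cells against peroxide damage rather than for killing them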
# Vero = assay: cells; type: functional; conditions: Chlorocebus sabaeus
# Cytochrome P450 2C9 = Cytochrome P450 2C9 (Homo sapiens, UniProt P11712)
# [6] = molecular target: T4, Histone-lysine N-methyltransferase NSD2 (Homo sapiens, UniProt O96028); type: biochemical
# T4 sequence (O96028 whole entry): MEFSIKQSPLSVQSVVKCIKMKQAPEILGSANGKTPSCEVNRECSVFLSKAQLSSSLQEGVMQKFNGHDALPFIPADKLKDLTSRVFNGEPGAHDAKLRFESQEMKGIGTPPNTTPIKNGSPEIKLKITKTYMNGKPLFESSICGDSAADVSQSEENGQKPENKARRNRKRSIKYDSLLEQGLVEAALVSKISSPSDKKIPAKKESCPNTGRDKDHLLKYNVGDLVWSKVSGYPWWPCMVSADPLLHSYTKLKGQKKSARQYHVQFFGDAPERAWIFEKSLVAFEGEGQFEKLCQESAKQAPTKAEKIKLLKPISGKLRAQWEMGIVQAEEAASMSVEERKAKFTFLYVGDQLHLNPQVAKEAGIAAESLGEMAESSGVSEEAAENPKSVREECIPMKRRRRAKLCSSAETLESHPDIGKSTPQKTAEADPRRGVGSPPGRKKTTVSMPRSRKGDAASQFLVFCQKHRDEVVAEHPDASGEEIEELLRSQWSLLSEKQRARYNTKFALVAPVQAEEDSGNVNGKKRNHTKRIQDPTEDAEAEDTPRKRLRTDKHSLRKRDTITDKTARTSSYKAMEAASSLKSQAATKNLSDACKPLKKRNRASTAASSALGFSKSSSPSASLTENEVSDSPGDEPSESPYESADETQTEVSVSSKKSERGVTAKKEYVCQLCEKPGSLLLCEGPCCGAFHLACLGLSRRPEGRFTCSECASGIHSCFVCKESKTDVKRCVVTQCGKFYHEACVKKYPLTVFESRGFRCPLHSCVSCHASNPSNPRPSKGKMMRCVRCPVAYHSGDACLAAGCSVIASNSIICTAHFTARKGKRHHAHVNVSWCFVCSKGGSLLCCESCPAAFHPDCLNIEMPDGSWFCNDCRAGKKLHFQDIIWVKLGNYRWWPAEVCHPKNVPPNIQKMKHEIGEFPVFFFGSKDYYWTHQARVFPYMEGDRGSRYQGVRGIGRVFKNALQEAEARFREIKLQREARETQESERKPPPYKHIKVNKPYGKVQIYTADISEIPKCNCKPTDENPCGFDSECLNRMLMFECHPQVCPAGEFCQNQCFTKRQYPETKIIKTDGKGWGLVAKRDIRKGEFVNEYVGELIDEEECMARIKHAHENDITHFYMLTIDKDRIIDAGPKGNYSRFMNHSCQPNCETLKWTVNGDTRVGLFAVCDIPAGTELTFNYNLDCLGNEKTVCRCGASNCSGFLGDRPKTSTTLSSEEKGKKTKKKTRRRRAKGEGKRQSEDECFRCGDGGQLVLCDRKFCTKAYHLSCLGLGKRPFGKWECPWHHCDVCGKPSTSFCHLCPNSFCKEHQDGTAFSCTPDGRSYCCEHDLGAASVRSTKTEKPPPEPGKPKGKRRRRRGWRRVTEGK
# [7] = molecular target: T5, Mannose-6-phosphate isomerase (Homo sapiens, UniProt P34949); assay: MPI inhibition at elevated mannose 6-phosphate – biochemical, fluorescence intensity, high mannose 6-phosphate, primary screen (AID 1220)
# T5 sequence (P34949 whole entry): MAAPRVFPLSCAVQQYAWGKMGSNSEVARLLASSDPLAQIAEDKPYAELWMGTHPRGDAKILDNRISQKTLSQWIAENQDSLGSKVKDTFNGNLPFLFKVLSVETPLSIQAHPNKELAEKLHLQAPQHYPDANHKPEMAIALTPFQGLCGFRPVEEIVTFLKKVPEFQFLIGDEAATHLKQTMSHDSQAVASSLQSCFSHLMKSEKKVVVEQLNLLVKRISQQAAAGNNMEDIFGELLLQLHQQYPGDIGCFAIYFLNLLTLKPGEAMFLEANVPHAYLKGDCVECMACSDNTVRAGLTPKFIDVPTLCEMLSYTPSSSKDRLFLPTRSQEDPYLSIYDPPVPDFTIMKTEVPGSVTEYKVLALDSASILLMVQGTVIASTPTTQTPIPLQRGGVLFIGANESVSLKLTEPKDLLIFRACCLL
# Cytochrome P450 2C19 = Cytochrome P450 2C19 (Homo sapiens, UniProt P33261); assay: Cytochrome panel assay with activity outcomes. Panel member name: p450-cyp2c19 Compounds with AC50 equal or less than 10 uM are considered active; type: functional; conditions: read-out: AC50
# cells [8] = type: functional, cell-based
# cells [9] = type: functional, cell-based; remark: listed apart in the source
# Chain of ATP-dependent molecular chaperone HSP82 (C4YTQ8 whole entry): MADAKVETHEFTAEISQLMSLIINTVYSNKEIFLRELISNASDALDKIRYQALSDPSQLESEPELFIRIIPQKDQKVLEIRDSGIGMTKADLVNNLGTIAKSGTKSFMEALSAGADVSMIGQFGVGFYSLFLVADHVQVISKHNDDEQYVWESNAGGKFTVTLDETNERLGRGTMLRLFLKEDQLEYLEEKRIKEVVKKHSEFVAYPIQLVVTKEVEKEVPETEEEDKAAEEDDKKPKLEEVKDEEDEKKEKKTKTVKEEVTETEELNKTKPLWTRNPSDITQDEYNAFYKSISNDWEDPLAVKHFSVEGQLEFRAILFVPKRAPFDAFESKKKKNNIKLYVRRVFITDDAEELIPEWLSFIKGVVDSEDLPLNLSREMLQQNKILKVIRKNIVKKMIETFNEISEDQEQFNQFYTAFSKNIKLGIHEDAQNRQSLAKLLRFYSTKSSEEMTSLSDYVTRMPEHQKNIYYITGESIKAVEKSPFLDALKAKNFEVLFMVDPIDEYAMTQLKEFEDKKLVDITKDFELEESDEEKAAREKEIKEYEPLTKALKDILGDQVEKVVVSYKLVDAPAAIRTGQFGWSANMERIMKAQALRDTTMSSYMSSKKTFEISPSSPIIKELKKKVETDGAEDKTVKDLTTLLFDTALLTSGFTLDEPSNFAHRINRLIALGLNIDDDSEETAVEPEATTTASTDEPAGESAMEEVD
# Chain of Cytochrome P450 2D6 (P10635 whole entry): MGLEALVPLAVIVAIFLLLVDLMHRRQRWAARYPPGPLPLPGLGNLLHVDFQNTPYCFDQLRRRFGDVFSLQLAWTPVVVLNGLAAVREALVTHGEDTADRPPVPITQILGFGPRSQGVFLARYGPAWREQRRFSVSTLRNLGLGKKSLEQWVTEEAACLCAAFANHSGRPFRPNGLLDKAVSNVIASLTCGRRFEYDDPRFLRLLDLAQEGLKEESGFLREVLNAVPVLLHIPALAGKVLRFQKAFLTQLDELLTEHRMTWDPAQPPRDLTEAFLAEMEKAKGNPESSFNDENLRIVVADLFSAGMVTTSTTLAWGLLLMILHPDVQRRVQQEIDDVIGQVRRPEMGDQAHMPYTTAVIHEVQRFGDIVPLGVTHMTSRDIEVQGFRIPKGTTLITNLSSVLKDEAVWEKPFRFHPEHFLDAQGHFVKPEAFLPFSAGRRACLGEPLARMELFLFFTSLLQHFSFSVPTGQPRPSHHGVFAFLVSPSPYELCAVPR
# Chain of Nonstructural protein 1 (Q194T2 whole entry): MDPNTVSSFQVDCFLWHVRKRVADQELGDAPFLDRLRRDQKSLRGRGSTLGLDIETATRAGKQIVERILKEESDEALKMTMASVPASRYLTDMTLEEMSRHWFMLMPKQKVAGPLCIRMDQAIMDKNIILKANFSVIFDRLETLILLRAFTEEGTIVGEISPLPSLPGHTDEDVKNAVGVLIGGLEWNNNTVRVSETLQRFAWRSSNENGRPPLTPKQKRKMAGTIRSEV
# Chain of Cytochrome P450 3A4 (P08684 whole entry): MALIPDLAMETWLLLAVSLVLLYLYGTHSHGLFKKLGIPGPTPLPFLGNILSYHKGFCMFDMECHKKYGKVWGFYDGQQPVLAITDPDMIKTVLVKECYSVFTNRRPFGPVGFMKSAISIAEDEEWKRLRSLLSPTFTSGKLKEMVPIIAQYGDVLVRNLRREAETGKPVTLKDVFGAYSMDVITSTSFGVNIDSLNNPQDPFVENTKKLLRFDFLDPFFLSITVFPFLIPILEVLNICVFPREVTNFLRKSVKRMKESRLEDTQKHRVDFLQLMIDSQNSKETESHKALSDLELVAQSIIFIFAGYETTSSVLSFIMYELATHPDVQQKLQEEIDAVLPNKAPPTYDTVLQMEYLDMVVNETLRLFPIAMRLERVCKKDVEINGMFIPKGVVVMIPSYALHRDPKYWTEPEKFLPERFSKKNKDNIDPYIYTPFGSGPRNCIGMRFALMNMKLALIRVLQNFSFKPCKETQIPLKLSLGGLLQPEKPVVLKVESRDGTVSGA
# Chain of Cytochrome P450 2C19 (P33261 whole entry): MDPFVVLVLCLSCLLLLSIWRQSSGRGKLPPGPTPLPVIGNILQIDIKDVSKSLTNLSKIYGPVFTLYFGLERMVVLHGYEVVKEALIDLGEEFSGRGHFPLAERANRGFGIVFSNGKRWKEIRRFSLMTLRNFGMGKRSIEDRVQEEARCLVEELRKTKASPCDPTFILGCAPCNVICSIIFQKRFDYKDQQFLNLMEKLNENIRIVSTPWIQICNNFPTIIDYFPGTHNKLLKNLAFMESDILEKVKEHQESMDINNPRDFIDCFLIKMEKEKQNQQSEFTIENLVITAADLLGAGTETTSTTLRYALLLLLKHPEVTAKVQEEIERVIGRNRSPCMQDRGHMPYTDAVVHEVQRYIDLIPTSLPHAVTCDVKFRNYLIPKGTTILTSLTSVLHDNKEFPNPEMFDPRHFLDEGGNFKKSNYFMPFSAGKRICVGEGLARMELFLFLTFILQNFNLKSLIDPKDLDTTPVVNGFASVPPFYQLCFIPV
# Chain of Cytochrome P450 2C9 (P11712 whole entry): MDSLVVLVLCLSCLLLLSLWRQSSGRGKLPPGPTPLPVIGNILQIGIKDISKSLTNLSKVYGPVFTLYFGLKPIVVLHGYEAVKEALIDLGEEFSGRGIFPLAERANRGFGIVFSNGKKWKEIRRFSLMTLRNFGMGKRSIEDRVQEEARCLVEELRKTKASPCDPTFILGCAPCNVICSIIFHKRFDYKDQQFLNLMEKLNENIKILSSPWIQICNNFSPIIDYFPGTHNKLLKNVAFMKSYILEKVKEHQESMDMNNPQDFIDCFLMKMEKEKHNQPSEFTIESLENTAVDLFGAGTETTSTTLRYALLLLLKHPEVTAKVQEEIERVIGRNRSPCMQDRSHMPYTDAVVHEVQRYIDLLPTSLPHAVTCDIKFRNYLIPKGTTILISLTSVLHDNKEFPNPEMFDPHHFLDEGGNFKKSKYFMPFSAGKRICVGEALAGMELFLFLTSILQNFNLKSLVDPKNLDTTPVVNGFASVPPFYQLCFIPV
compound,measurement,setting,value
COc1ccc(-n2nc(C(=O)NCC(=O)N3CCN(c4ccc(F)cc4)CC3)c3ccccc3c2=O)c(OC)c1,EC50,[1],642 nM (active)
same,EC50,[2],> 150 µM (inactive)
same,EC50,[3],> 150 µM (inactive)
same,EC50,[4],> 180 µM (inactive)
Cc1nn(C)c(C)c1S(=O)(=O)N1CCC(C(=O)NCCC2=CCCCC2)CC1,IC50,Prothrombin,> 50 µM (not active)
same,IC50,Coagulation factor XII,> 50 µM (inactive)
Cc1ccc2[nH]c(/C(C#N)=C\c3ccc(OC(=O)c4cccs4)cc3)nc2c1,EC50,[1],5290 nM (active)
same,EC50,[2],23.3 µM (active)
same,EC50,[3],17.2 µM (inconclusive)
same,AC50,Cytochrome P450 3A4,14.1 µM (inconclusive)
same,AC50,Cytochrome P450 2D6,3.55 µM (inconclusive)
same,EC50,[4],> 180 µM (inactive)
Cc1cc(C)n(-c2nnc(C)n2NS(=O)(=O)c2ccc(F)cc2)n1,IC50,Coagulation factor XII,> 50 µM (inactive)
CS(=O)(=O)c1ccc2nc(NC(=O)c3ccc(NS(=O)(=O)c4cccc([N+](=O)[O-])c4)cc3)sc2c1,EC50,[5],2.32 µM (active)
same,IC50,Prothrombin,> 50 µM (not active)
same,EC50,Streptococcus,12 µM (active)
same,EC50,Streptokinase A,> 150 µM (not active)
O=C(O)Cc1ccc(NC(=O)CCN2C(=O)c3ccc([N+](=O)[O-])cc3C2=O)cc1,IC50,Coagulation factor XII,> 50 µM (inactive)
CCOc1ccc(OCC)c(NC(=O)CCS(=O)(=O)c2ccc(Br)s2)c1,IC50,Prothrombin,3.1 µM (active)
O=C1SCCC1NC(=O)C(c1ccccc1)c1ccccc1 (configuration not stated),IC50,Coagulation factor XII,> 50 µM (inactive)
Cc1nnc2c(-c3ccccc3)nc3ccccc3n12,IC50,Prothrombin,> 50 µM (not active)
O=C(c1cc2ccccc2cc1O)N1CCN(c2ccccc2O)CC1,EC50,[5],24.3 µM (active)
same,EC50,Streptococcus,110 µM (active)
same,EC50,[1],274 nM (active)
same,EC50,[2],> 150 µM (inactive)
same,EC50,Streptokinase A,> 150 µM (not active)
same,EC50,[3],> 150 µM (inactive)
same,EC50,[4],> 180 µM (inactive)
Cc1ccccc1NC(=O)Nc1ccccc1Br,IC50,Prothrombin,> 50 µM (not active)
O=[N+]([O-])c1ccc(O)c(Nc2c([N+](=O)[O-])ccc3nonc23)c1,IC50,Nonstructural protein 1,64.5 µM (active)
O=c1oc(-c2ccco2)nc2c1cnn2-c1ccccc1,IC50,H9c2,> 79 µM (inactive)
same,IC50,Coagulation factor XII,18.2 µM (active)
O=C(CC1CCCC1)NNC(=O)c1ccccc1O,CC50,Vero,> 25 µM (active)
Nc1cccc2cnccc12,AC50,Cytochrome P450 2C9,28.2 µM (inconclusive)
same,AC50,[6],> 20 µM (inactive)
same,IC50,[7],> 50 µM (not active)
same,AC50,Cytochrome P450 2C19,20 µM (inconclusive)
same,AC50,Cytochrome P450 2D6,22.4 µM (inconclusive)
Cc1[nH]n(-c2ccccc2)c(=O)c1N=Nc1ccc2c(c1)OCCO2,IC50,Nonstructural protein 1,41.2 µM (active)
same,EC50,cells [8],> 350 µM (not active)
same,EC50,cells [9],> 350 µM (not active)
O=C(CCc1ccc(O)cc1)N/N=C/c1coc2ccccc2c1=O,IC50,Prothrombin,6.25 µM (active)
